Data published in US4294841A, “Derivatives of 1-phenyl 3-(4-piperidyl) 1-propanone usable as drugs” (Pharmindustrie, priority 1978, dated 1981).
Read-outs that look alike come from different tables or passages of the source.

Columns and labels:
[1] = molecular target: receptors for benzodiazepines in the brain membranes (3H-diazepam binding site); test: displacement of 3H-diazepam from its binding sites (method of H. Mohler et al.); set-up: species or system rat
Text: The anxiolytic activity of the benzodiazepines is well known. The presence of specific receptors for benzodiazepines in the brain membranes of the rat has also been well established (Squires et al. Nature 266, 732, (1977)) and a good correlation exists between the degree of affinity of benzodiazepines for the receiving binding sites and the pharmacodynamic effects observed in the animal and in man.
The results of Table II have been obtained by testing the products according to the method of H. Mohler et al., Life Sciences 20, 2101 (1977).

[2] = test system: ventricular arhythmias caused by aconitine; test: antiarhythmic activity, aconitine test in rats; assay type: in vivo; settings: Rattus norvegicus, iv, read-out: ED50 (i.v.)
Method: The principle of the technique rests on the induction time of ventricular arhythmias caused by aconitine which is slowly perfused in rats. An antiarhythmic substance retards the occurrence of arhythmias and this delay is proportional to the activity of the molecule.
Groups of five male rats are used. An individual anaesthesia is realized (10% urethane: 1 g/kg/ip) to allow a catheterization of the vein of the penis. The electrocardiogram is recorded. At time T=0 the substance investigated is injected in the form of an aqueous solution, at a rate of 2.5 ml of solution per kg in 30 seconds. At time T=90 seconds, that is 1 minute after the end of the injection, aconitine is perfused at a rate of 20 μg per minute until the appearance of supra-ventricular systoles. The time of perfusion of the aconitine is noted.
The results are expressed by an ED50, which is the dose in mg/kg increasing by 50% the perfusion time of aconitine in comparison with the perfusion time of aconitine for the control animals.

[3] = acute toxicity in the mouse per os; set-up: species or system Charles River); settings: in vivo, po, male CD1 mouse, 3 days of observation
Text: The acute toxicities of the compounds of formula (I) have been determined on the male mouse CD1 (Charles River) per os. The LD50 have been calculated, after 3 days of observation, by the cumulative method of J. J. Reed and H. Muench (Amer. J. Hyg. 27, 493, (1938)).

[4] = test system: uptake of serotonin (5-hydroxytryptamine, 5HT); test: inhibition test of the uptake of serotonin by synaptosomes of the rat brain (medulla + pons); assay type: biochemical; settings: read-out: I50 5HT (medulla + pons)
Text: (§1) The results are expressed by a 50% inhibitory dose (I50) which represents the dose of product, in micromoles per liter, diminishing by 50% the uptake of the neuromediator considered in the specific regions (hypothalamus, medulla+pons) where the corresponding neurons predominate.

[5] = test system: uptake of noradrenaline (NA); test: inhibition test of the uptake of noradrenaline by synaptosomes of the rat brain (hypothalamus); assay type: biochemical; settings: read-out: I50 NA (hypothalamus)
Text: as §1

[6] = calculated from I50, read-out: Ki

SMILES	Ki [1, 6] [µM]	ED50 [2] [mg/kg]	LD50 at 72 h [3] [mg/kg]	IC50 [4] [µM]	IC50 [5] [µM]	Ki ([1]; calculated from I50)
Oc1ccccc1CCCC1CCNCC1 [Example 20, 2-[3-(4-Piperidyl)propyl]phenol]	29	1.2				
C=C[C@H]1C[N@@]2CC[C@H]1C[C@@H]2[C@@H](O)c1ccnc2ccc(OC)cc12 [Quinidine, reference compound]		4				
Cc1ccc(CCCC2CCNCC2)cc1 [Example 10, 4-[3-(4-Methylphenyl)1-propyl]piperidine]	42		400	0.16	0.3	
COc1ccc(CCCC2CCNCC2)cc1 [Example 6, 4-[3-(4-Methoxyphenyl) 1-propyl]piperidine]	19.5		400	0.02	2.2	
COc1ccc(C(=O)CCC2CCNCC2)cc1 [Example 19, 1-(4-methoxyphenyl) 3-(4-piperidyl) 1-propanone]	6.5		200			
CN(C)CCCN1c2ccccc2CCc2ccccc21 [Imipramine, reference compound]				0.12	0.5	inactive
c1ccc(CCCC2CCNCC2)cc1 [Example 16, 4-[3-(phenyl)propyl]piperidine]		2.5	200	0.002	0.24	
Clc1ccc(CCCC2CCNCC2)cc1Cl [Example 9, 4-[3-(3,4-dichlorophenyl)1-propyl]piperidine]			600	0.18	1.3	
Clc1ccc(CCCC2CCNCC2)cc1 [Example 8, 4-[3-(4-Chlorophenyl)1-propyl]piperidine]	36		235	0.09	0.9	
Nc1ccc(CCCC2CCNCC2)cc1 [Example 17, 4-[3-(4-Aminophenyl)propyl]piperidine]	36					
Fc1ccc(CCCC2CCNCC2)cc1 [Example 7, 4-[3-(4-Fluorophenyl)1-propyl]piperidine]	45		225	0.01	3	
COc1ccc(C(O)CCC2CCNCC2)cc1 (stereo not shown) [Example 22, 1-(4-methoxyphenyl) 3-(4-piperidyl) 1-propanol]	32		800			
